How the values were obtained:
pertussis toxin = pertussis toxin (Bordetella pertussis, UniProt P04977); experiment: Inactivation of NADase activity by sulfhydryl reagents, 6 minutes or 18 hours at 0-4° (Example Eight); type: biochemical
Protocol: Pertussis toxin was incubated at 37° C. for fifteen minutes as described in Example Six, and then a second incubation was begun by adding 10 μl buffer A with or without 12.5 mM iodoacetate, mixing the contents of the tube and lowering the temperature to 30° C. After fifteen minutes, the tubes were shifted to an ice bath for ten minutes. A third incubation was then begun by adding 10 μl buffer A containing 200 mM DTT to those tubes containing iodoacetate to scavenge the iodoacetate. To those tubes not containing iodoacetate during the second incubation, a mixture of 200 mM DTT and 12.5 mM iodoacetate in buffer A, previously incubated for an hour on ice, was added. The third incubation was continued for one hour on ice.
The contents of each tube were then assayed for NADase activity by adding 40 μl of a reaction mix consisting of buffer A containing carbon-14 labelled NAD (final concentration in the 100 μl final volume was 25 μM), and 50 mM sodium chloride. Different reaction mixtures with various additions were used, so that in all tubes the final concentration of ATP was 1 mM and CHAPS was 1 weight percent. The assay was conducted at 37° C. for sixty minutes, and the released labelled nicotinimide was isolated and counted. The iced controls were formed by incubating pertussis toxin (1 μg) on ice in 10 mM sodium phosphate (pH 7) and 50 mM sodium chloride during the first three incubations. […] The first three incubations were done under a nitrogen atmosphere using degassed conditions, and the second and third incubations were done under subdued light.
The procedure followed in Example Seven was repeated for this study, except that N-ethylmaleimide, chloroacetamide or chloroacetate were substituted for iodoacetate. After the 30° C. incubation, the tubes were either incubated for six minutes or eighteen hours at 0°-4° C. before the 10 μl of 200 mM DTT (with or without quenched reagent) was added. Those tubes receiving the DTT after six minutes were incubated for nineteen hours at 0°-4° C. prior to the NADase assay. Those receiving the DTT after eighteen hours were incubated with DTT for one hour, as in Example Seven. The tubes were then assayed for NADase activity at the same time.

[1] = test system: S1 -S5 subunits of the toxin; experiment: Labelled iodoacetate incorporation into toxin subunits, electrophoresis and x-ray film (Examples Two and Six); set-up: species or system Bordetella pertussis
S1 -S5 subunits of the toxin, sequence (P04977 35-269 limits assumed): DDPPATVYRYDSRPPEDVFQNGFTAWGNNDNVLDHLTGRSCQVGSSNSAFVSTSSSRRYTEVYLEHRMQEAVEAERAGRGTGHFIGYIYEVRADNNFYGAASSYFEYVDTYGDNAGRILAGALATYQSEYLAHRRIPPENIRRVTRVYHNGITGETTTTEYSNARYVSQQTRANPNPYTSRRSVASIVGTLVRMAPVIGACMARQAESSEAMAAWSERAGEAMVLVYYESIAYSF
S1 -S5 subunits of the toxin, sequence (P04978 28-226 limits assumed, further chain): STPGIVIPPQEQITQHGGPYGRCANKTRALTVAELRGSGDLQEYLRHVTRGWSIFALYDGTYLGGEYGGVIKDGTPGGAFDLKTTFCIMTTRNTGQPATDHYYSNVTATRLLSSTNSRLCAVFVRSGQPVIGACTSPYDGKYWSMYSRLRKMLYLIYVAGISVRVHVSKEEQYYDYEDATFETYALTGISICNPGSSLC
S1 -S5 subunits of the toxin, sequence (P04979 29-227 limits assumed, further chain): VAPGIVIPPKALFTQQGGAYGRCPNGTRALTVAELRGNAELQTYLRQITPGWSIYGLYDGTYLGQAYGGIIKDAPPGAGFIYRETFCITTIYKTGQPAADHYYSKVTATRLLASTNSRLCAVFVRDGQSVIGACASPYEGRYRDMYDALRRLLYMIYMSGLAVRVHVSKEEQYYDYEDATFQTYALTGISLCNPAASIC
S1 -S5 subunits of the toxin, sequence (P0A3R5 43-152 limits assumed, further chain): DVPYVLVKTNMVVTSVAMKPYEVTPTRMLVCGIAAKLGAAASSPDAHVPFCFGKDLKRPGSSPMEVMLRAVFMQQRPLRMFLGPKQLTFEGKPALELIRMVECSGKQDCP
S1 -S5 subunits of the toxin, sequence (P04981 35-133 limits assumed, further chain): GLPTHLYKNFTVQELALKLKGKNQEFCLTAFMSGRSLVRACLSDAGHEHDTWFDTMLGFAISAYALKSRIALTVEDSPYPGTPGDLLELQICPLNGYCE
Protocol: Pertussis toxin (2.5 μg) was incubated for thirty minutes at 37° C. in 50 μl of 50 mM Tris-HCl (pH 8.0) with or without combinations of the activators ATP, CHAPS and DTT. During this incubation, ATP was 1 mM, CHAPS was 1 weight percent, and DTT was 0.5 mM, when present. Following this incubation, 75 nmol (1.34 microCi of iodo[^14 C]acetate and 25 μl of water were then added, and the tubes incubated for an additional thirty minutes under nitrogen gas at 30° C. in the dark. This labelling reaction was terminated by adding 1 ml of ice-cold water containing 7.5 mM non-radioactive iodoacetate, 2.5 μg bovine serum albumin, and 150 μg sodium deoxycholate. After ten minutes on ice, 100 μl 72% triochloroacetic acid was added, and the precipitate recovered by centrifugation. Sodium dodecylsulfate and beta-mercaptoethanol were added, the sample heated to 95° C. for one minute, and then electrophoresed using 15% polyacrylamide gels. The fixed gels were then treated, dried and used to expose x-ray film at -70° C.
Pertussis toxin was incubated first at 37° C. for fifteen minutes in […] buffer A (100 mM Tris-HCl, pH 8.0 with 1 mM NaEDTA). EDTA was added to chelate divalent cations, which may promote oxidation of free --SH groups. During this incubation, DTT and ATP were present in concentrations of 1 mM each, and CHAPS was present in a concentration of 1 weight percent. Labelled iodoacetate was then added ([…], 12.5 mM), and the tube incubated on ice for twenty hours. The sample was then mixed with sodium dodecylsulfate and β-mercaptoethanol, heated at 95° C. for one minute, and electrophoresed. After electrophoresis, the gel was fixed, treated with Fluorohance (Research Products International), dried and used to expose x-ray film.

[2] = first incubation: ATP, CHAPS, 18 hours at 0-4°
[3] = first incubation: ATP, DTT, CHAPS, 6 minutes at 0-4°
[4] = first incubation: ATP, DTT, CHAPS, 18 hours at 0-4°
[5] = first incubation: CHAPS, 18 hours at 0-4°
[6] = first incubation: DTT, CHAPS, 18 hours at 0-4°
[7] = first incubation: none, 15 minutes at 30° C. followed by 18 hours at 0-4°

pertussis toxin, sequence (P04977 35-269 limits assumed): as the sequence (P04977 35-269 limits assumed) above

Compound: O=C(O)CI [iodoacetate]
- NADase activity (pertussis toxin; [2]): 110 pmol per μg per hour
- percent of activity with no addition to second incubation (pertussis toxin; [2]): 85%
- NADase activity (pertussis toxin; [3]): 17 pmol per μg per hour
- percent of activity with no addition to second incubation (pertussis toxin; [3]): 17%
- NADase activity (pertussis toxin; [4]): 3 pmol per μg per hour
- percent of activity with no addition to second incubation (pertussis toxin; [4]): 3%
- NADase activity (pertussis toxin; [5]): 171 pmol per μg per hour
- percent of activity with no addition to second incubation (pertussis toxin; [5]): 92%
- NADase activity (pertussis toxin; [6]): 151 pmol per μg per hour
- percent of activity with no addition to second incubation (pertussis toxin; [6]): 79%
- NADase activity (pertussis toxin; [7]): 59 pmol per μg per hour
- percent of activity with no addition to second incubation (pertussis toxin; [7]): 116%
- Amount of label incorporated into the S1 subunit ([1]; DTT 1 mM, ATP 1 mM, CHAPS 1%, labelled iodoacetate on ice for twenty hours): equal to the sum of that incorporated into the S2 and S3 subunits
- Carboxymethylation of toxin subunits, in words ([1]; after activation of the toxin by DTT, ATP and CHAPS): carboxymethylated the enzymatic S1 subunit
- Extent of carboxymethylation of the toxin ([1]; pH lowered from 8 to 7): decreases somewhat
